Each structure is given as a SMILES string. Where two headings read alike, the source gives them in different places.

Data on nine compounds can be found in patent publication US20250143304A1, “INSECT, ACARINA AND NEMATODE PEST CONTROL” (SYNGENTA CROP PROTECTION AG, priority 2022, published 2025).

The data set relates to Spodoptera littoralis (Egyptian cotton leaf worm). The data set can be described thus: Spodoptera littoralis (Egyptian cotton leaf worm) feeding/contact activity assay, mortality on cotton leaf discs; synergy by COLBY formula. The format is in vivo. The source says:
A synergistic effect exists whenever the action of an active ingredient combination is greater than the sum of the actions of the individual components. The action to be expected E for a given active ingredient combination obeys the so-called COLBY formula and can be calculated as follows (COLBY, S.R. “Calculating synergistic and antagonistic responses of herbicide combination”. Weeds, Vol. 15, pages 20-22 1967): • ppm=milligrams of active ingredient (a.i.) per liter • X=% action by first active ingredient using p ppm of the active ingredient • Y=% action by second active ingredient using q ppm of the active ingredient.
According to Colby, the expected (additive) action of active ingredients A+B using p+q ppm of active
If the action actually observed O is greater than the expected action E, then the action of the combination is super-additive, i.e. there is a synergistic effect. In mathematical terms, synergism corresponds to a positive value for the difference of (O-E). In the case of purely complementary addition of activities (expected activity), said difference (O-E) is zero. A negative value of said difference (O-E) signals a loss of activity compared to the expected activity.
The synergistic biological activity of combinations of component (A) and component (B) as disclosed herein was assessed using a Spodoptera littoralis (Egyptian cotton leaf worm) feeding/contact activity assay. Cotton leaf discs were placed onto agar in 24-well microtiter plates and sprayed with aqueous test solutions prepared from 10′000 ppm DMSO stock solutions. After drying the leaf discs were infested with L1 larvae. The samples were assessed for mortality 3 days after infestation.

The mark [1] stands for this setting: Spodoptera littoralis, foliar, 72 h, read-out: Mortality (%) Observed (%).
The mark [2] stands for this setting: single component alone at 7.8125 mg/L, 3 days after infestation.
The mark [3] stands for this setting: single component alone at 15.625 mg/L, 3 days after infestation.
Setting [4] is: single component alone at 1.95312 mg/L, 3 days after infestation.
Setting [5] is: single component alone at 3.90625 mg/L, 3 days after infestation.
Setting [6] is: single component alone at 31.25 mg/L, 3 days after infestation.
[7] abbreviates: single component alone at 62.5 mg/L, 3 days after infestation.
[8] abbreviates: single component alone at 125 mg/L, 3 days after infestation.
The mark [9] stands for this setting: single component alone at 250 mg/L, 3 days after infestation.

For orientation: mortality means the share of the test organisms that died. Consider `CCC(=O)NCc1ccc(C2=NO[C@@](c3cc(Cl)c(F)c(Cl)c3)(C(F)(F)F)C2)c2c1OCC2` [A-1, N-[[4-[(5S)-5-(3,5-dichloro-4-fluorophenyl)-5-(trifluoromethyl)-4H-isoxazol-3-yl]-2,3-dihydrobenzofuran-7-yl]methyl]propanamide], for which, under setting [1], the mortality at 0.0078125 µg/mL is 0%, the mortality at 0.015625 µg/mL was found to be 0%, the mortality at 0.03125 µg/mL amounted to 0% and the mortality at 0.0625 µg/mL turned out to be 80%. For the same compound, the mortality at 0.125 µg/mL under setting [1] was determined as 100%.

Consider `CC1(NC(=O)c2cccc3nn(-c4cccnc4)cc23)CC1` [B-4, indazapyroxamet], for which the “Mortality (%) Observed (%)” value is listed as 0% under setting [2] and 0% under setting [3].

Consider `C[n+]1c([O-])c(-c2ccccc2)c(=O)n2c1SC[C@@H]2c1cnc(Cl)s1` [B-5, fenmezoditiaz], for which the “Mortality (%) Observed (%)” value worked out at 0% (single component alone at 0.488281 mg/L, 3 days after infestation); 0% (single component alone at 0.976562 mg/L, 3 days after infestation); 0% under setting [4]; 0% under setting [5]; 0% under setting [2].

With `CCS(=O)(=O)c1cccnc1-c1cnc(OCC(F)(F)C(F)(F)F)cn1` [B-17, 2-(3-ethylsulfonyl-2-pyridyl)-5-(2,2,3,3,3-pentafluoropropoxy)pyrazine], the mortality at 0.0390625 µg/mL (Spodoptera littoralis, foliar, 72 h, single component alone at 0.0390625 mg/L, 3 days after infestation, read-out: Mortality (%) Observed (%)) came to 0%. Further, for the setting “Spodoptera littoralis, foliar, 72 h, single component alone at 0.078125 mg/L, 3 days after infestation, read-out: Mortality (%) Observed (%)”, the mortality at 0.078125 µg/mL turned out to be 0%. The mortality at 0.15625 µg/mL (Spodoptera littoralis, foliar, 72 h, single component alone at 0.15625 mg/L, 3 days after infestation, read-out: Mortality (%) Observed (%)) was 0%. For the same compound, the mortality at 0.3125 µg/mL (Spodoptera littoralis, foliar, 72 h, single component alone at 0.3125 mg/L, 3 days after infestation, read-out: Mortality (%) Observed (%)) was 0%. Besides, the mortality at 0.625 µg/mL (Spodoptera littoralis, foliar, 72 h, single component alone at 0.625 mg/L, 3 days after infestation, read-out: Mortality (%) Observed (%)) worked out at 0%. Under “Spodoptera littoralis, foliar, 72 h, single component alone at 1.25 mg/L, 3 days after infestation, read-out: Mortality (%) Observed (%)”, the mortality at 1.25 µg/mL came to 0%. Further, the mortality at 2.5 µg/mL (Spodoptera littoralis, foliar, 72 h, single component alone at 2.5 mg/L, 3 days after infestation, read-out: Mortality (%) Observed (%)) turned out to be 20%.

On to `CN/C(=N\[N+](=O)[O-])NCc1cnc(Cl)s1` [B-38, clothianidin], for which, under setting [1], the mortality at 0.15625 µg/mL worked out at 0%, the mortality at 0.3125 µg/mL came out at 0%, the mortality at 0.625 µg/mL came to 0% and the mortality at 1.25 µg/mL was found to be 0%. Besides, the mortality at 2.5 µg/mL under setting [1] worked out at 0%.

For `CNC(=O)c1cc(Cl)cc(C)c1NC(=O)c1cc(Br)nn1-c1ncccc1Cl` [B-43, chlorantraniliprole], under setting [1], the mortality at 0.00390625 µg/mL was 0%, the mortality at 0.0078125 µg/mL worked out at 0%, the mortality at 0.015625 µg/mL worked out at 0% and the mortality at 0.03125 µg/mL came out at 0%. Under setting [1], the mortality at 0.0625 µg/mL came out at 0% and the mortality at 0.125 µg/mL amounted to 0%.

Consider `CC1(C)C(C=C(Cl)Cl)C1C(=O)OC(C#N)c1cccc(Oc2ccccc2)c1` (stereo not drawn) [B-46, alpha-cypermethrin], for which, under setting [1], the mortality at 0.015625 µg/mL was found to be 0%, the mortality at 0.03125 µg/mL amounted to 0%, the mortality at 0.0625 µg/mL worked out at 0% and the mortality at 0.125 µg/mL was 0%. Moreover, under setting [1], the mortality at 0.25 µg/mL was determined as 0% and the mortality at 0.5 µg/mL is 60%.

`CCN(C(=O)c1cnn(C(C)C(C)C)c1C)c1ccnnc1` (stereo not shown) [B-133, dimpropyridaz]: the “Mortality (%) Observed (%)” value is, setting by setting: under setting [3], 0%; under setting [6], 0%; under setting [7], 0%; under setting [8], 0%; under setting [9], 0%.

For the compound `C[C@]1(COC(=O)C2CC2)[C@@H]2C[C@H](O)[C@@]3(C)Oc4cc(-c5cccnc5)oc(=O)c4[C@H](O)[C@@H]3[C@@]2(C)CC[C@@H]1OC(=O)C1CC1` [B-134, afidopyropen], the “Mortality (%) Observed (%)” value reads like this: under setting [4], 0%; under setting [5], 0%; under setting [2], 0%; under setting [3], 0%; under setting [6], 0%; under setting [7], 0%. Also, the “Mortality (%) Observed (%)” value turned out to be 0% under setting [8] and 0% under setting [9].
